Data on one compound can be found in patent publication US20260337187A1, “COMPOUNDS FOR TREATMENT OF INFLAMMATORY PROCESSES” (THORNE LIMITED, priority 2022, published 2026).

Data set [1] relates to primary peripheral blood monocytes. Kind of data set: Macrophage/monocyte migration to CCL2 (Boyden chamber/Transwell). It counts as cell-based, human. To be noted: 50 μM B2, towards CCL2 (FIG. 10). On the procedure: Dark grey: dimethylsulfoxide (DMSO) only; light grey: 50 μM B2. An exemplary experiment out of four is shown.
Macrophage/monocyte migration: Monocytes/macrophages were purified from buffy coats, first by density gradient centrifugation on ficoll to isolate total PBMC, and then by negative selection using the monocyte purification kit from Miltenyi Inc. as per manufacturer's instructions. Monocytes were then resuspended in tissue culture media at a concentration of 5×10^6 per ml. Monocyte migration to CCL2 was then measured using a Boyden chamber assay fitted with a membrane with […] pores. This was performed as follows: 200 μl of cells were pipetted into the upper chamber in the presence or absence of B2 or DMSO control. In the lower chamber 1 ml of the chemokine solution at concentrations of 10 ng/mL and 100 ng/mL, together with the same amount of B2 or DMSO as in the upper chamber was added. Cells were then left to migrate for 6 hours and the number of cells migrating into the lower chamber was ascertained by standard cell counting.
To investigate the inhibition of macrophage/monocyte migration by B2, primary peripheral blood monocytes were isolated from buffy coat and subsequent negative selection. […] Migrated cells were quantified after 5 hours in the presence of carrier (DMSO) only or 50 μM B2 in DMSO (FIG. 10).

For another data set, the system named is primary human B cells. Kind of data set: B lymphocyte IgE production (frequency of IgE+ B lymphocytes by FACS). It counts as cell-based. The protocol:
B2 was applied at 3 different concentrations, from left to right: 50, 20 and 10 μM. Average of >10 experiments is shown.
B lymphocyte IgE production: B lymphocyte IgE production was measured in line with that previously described by Audzevich et al. (2013). Briefly, primary human B cells isolated by the MACSxpress Buffy Coat Pan B Cell Isolation Kit (Miltenyi Biotec) from buffy coat were stimulated for 6 days by recombinant hCD40L (100 μg/ml) and IL-4 (50 ng/ml) at a cell density of 5×10^4 cells/ml. The frequency of IgE+B lymphocytes was determined by FACS at day 6 using anti CD19 and anti IgE antibodies.
To investigate inhibition of B lymphocyte IgE production by B2, the frequency of IgE+B lymphocytes was determined by FACS at day 6 of primary human B cell cultures isolated from fresh buffy coat and stimulated by CD40L and IL4.

The subject of data set [2] is human primary neutrophils. Briefly: Neutrophil ROS production (fMLP triggered, DHR-123, FACS). It counts as cell-based. The protocol: The effect of 4 different concentrations (from left to right: 100, 50, 20 and 10 μM) of B2 is shown. Each symbol represents one experiment.
Neutrophil ROS production: Neutrophil reactive oxygen species (ROS) production was measured on human primary neutrophils, isolated from fresh blood samples using the MACSexpress™ neutrophil kit as described in the manufacturer's instructions (Miltenyi Biotec Inc.). Neutrophils in RPMI containing 50 μm dihydrorhodamine 123 (DHR-123) were triggered to produce ROS by treatment with 20 μm bacterial peptide N-formylmethionyl-leucyl-phenylalanine (fMLP) as a physiologically relevant stimulant. ROS were measured by FACS based on the conversion of DHR-123 to Rhodamine-123.
To investigate the effect of neutrophil ROS production by B2, human primary neutrophils, isolated from fresh blood samples, were triggered to produce reactive oxygen species (ROS) by treatment with the bacterial peptide N-formylmethionyl-leucyl-phenylalanine (fMLP) as a physiologically relevant stimulant and ROS were measured by FACS based on the conversion of dihydrorhodamine 123 to rhodamine 123. The effect of 4 different concentrations of B2 is shown (FIG. 2).

The subject of data set [3] is human primary eosinophils. Briefly: Eosinophil ROS production (PMA triggered, DHR-123, FACS). It counts as cell-based. To be noted: FIG. 7 (100, 50, 25 μM). On the procedure:
The effect of 3 different concentrations (from right to left: 100, 50 and 25 μM) of B2 is shown in comparison to control (far left) and ROS triggered control (PMA; second from left); average of 3 experiments.
Eosinophil ROS production: Human primary eosinophils were purified from buffy coat, firstly by density gradient centrifugation on ficoll to isolate total peripheral blood mononuclear cell (PBMC), and then by negative selection using the eosinophil purification kit from Miltenyi Inc. as per manufacturer's instructions. The eosinophils were then resuspended in pre-warmed tissue culture media, which had been left in the incubator overnight to equilibrate, containing 25 μM dihydrorhodamine 123 (DHR-123) at a cell density of 1×10^6 cells/ml. The cells were then stimulated with phorbol 12-myristate 13-actetate (PMA) at a concentration of 1 μM in the presence or absence of B2 or DMSO for control in the incubator for 20 minutes and then immediately put on ice to stop the reaction. Levels of the oxidized DHR in the samples were measured by flow cytometry as described above in relation to neutrophil ROS production.
To investigate inhibition of eosinophil ROS production by B2, human primary eosinophils, isolated from fresh blood samples, were triggered to produce ROS by treatment with PMA, and ROS measured by FACS based on the conversion of dihydrorhodamine 123 to rhodamine 123 (FIG. 7).

For the compound `Cc1onc(-c2ccccc2Cl)c1C(=O)Nc1nc2ccc([N+](=O)[O-])cc2s1` [B2, 3-(2-chlorophenyl)-5-methyl-N-(6-nitrobenzo[d]thiazol-2-yl)isoxazole-4-carboxamide], in data set [1], the macrophage migration entry is listed as “reduces macrophage migration”. The “toxicity in B lymphocyte culture” value in the data set on primary human B cells (50 μM B2, day 6) is “some toxicity was observed”; in the data set on primary human B cells (lower concentrations than 50 μM (20 and 10 μM), day 6), “not observed”. Moreover, in the data set with primary human B cells (CD40L and IL4, day 6, FIG. 5 (50, 20, 10 μM)), the “IgE production by primary human peripheral blood B lymphocytes” value was “inhibits IgE production”. Moreover, the “inhibition of neutrophil ROS production” value in data set [2] (50 μM B2, fMLP) is “clear inhibition of ROS production”; in data set [2] (100 μM B2, fMLP) it was “clear inhibition of ROS production”. Further, the “neutrophil ROS production” value in data set [2] (fMLP, concentration not given in the sentence (FIG. 2)) is listed as “substantially reduced”. Besides, the “production of reactive oxygen species (ROS) by human primary eosinophils” value in data set [3] is listed as “reduced production”.
